Test systems include A498 renal; A549 NSCLC; ACHN renal; EKVX NSCLC; HCC-2998 colon; HOP-62 NSCLC; HT29 colon; IGROV1 ovarian; K-562 leukemia; M14 melanoma; MALME-3M melanoma; MCF7 breast; MDA-MB-435; NCI-H460 lung; SW-620 colon; T-47D breast; UACC-62 melanoma; UO-31 renal; NCI-H226 lung; CCRF-CEM leukemia.
Holding throughout (test): NCI anticancer screen, dose series, 48 h

The structures appear in SMILES notation.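 Five concentrations, 48 hours, 96-well plates. The concentration for full growth arrest is given as TGI.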

Results on eight compounds are retold here after PubChem BioAssay (NCI).

Turning to `CC1(C)[C@@H]2C[C@H]1C(Cc1ccc(C[C@H]3c4cc(-c5ccccn5)ncc4[C@H]4C[C@@H]3C4(C)C)cc1)c1cc(-c3ccccn3)ncc12` (stereo partly drawn), the TGI was 7.99 µM in the assay on A498 renal; 87.9 µM with A549 NSCLC; more than 100 µM with ACHN renal; 15 µM in the assay on EKVX NSCLC; 88.2 µM with HCC-2998 colon; 11 µM with HOP-62 NSCLC. In addition, the TGI in the assay with HT29 colon was more than 100 µM; in the assay with IGROV1 ovarian, more than 100 µM; in the assay with K-562 leukemia, more than 100 µM; in the assay with M14 melanoma, more than 100 µM; in the assay on MALME-3M melanoma, 76.6 µM; in the assay on MCF7 breast it was more than 100 µM. The TGI with MDA-MB-435 is 23.3 µM; with NCI-H460 lung, 13.8 µM; with SW-620 colon it was more than 100 µM; with T-47D breast, more than 100 µM; in the assay on UACC-62 melanoma it was 5.68 µM; in the assay with UO-31 renal, 4.91 µM.

`COC(=O)C(/C(=N/N)C(=O)Nc1cc(Cl)c(Cl)cc1Cl)c1nc2ccc(Cl)cc2[nH]c1=O` (stereo not drawn): the TGI in the assay with A498 renal, with A549 NSCLC, in the assay on ACHN renal, with EKVX NSCLC, in the assay on HOP-62 NSCLC and in the assay with HT29 colon was more than 100 µM throughout. In addition, the TGI in the assay on IGROV1 ovarian, in the assay with K-562 leukemia, in the assay on M14 melanoma, in the assay on MALME-3M melanoma, in the assay with MCF7 breast and in the assay with MDA-MB-435 was more than 100 µM in each case. Also, the TGI with NCI-H226 lung, in the assay with NCI-H460 lung, in the assay on SW-620 colon, with T-47D breast, with UACC-62 melanoma and in the assay on UO-31 renal was more than 100 µM throughout.

For `COc1ccc(C2SC(N)=Nc3c2c(C)nn3C(=O)c2ccc(Cl)cc2)cc1` (stereo not drawn), the TGI with A549 NSCLC, with ACHN renal, in the assay on CCRF-CEM leukemia, in the assay on EKVX NSCLC, in the assay on HCC-2998 colon and with HOP-62 NSCLC was more than 10 µM each time. Also, the TGI in the assay with HT29 colon, in the assay on IGROV1 ovarian, in the assay on K-562 leukemia, with M14 melanoma, in the assay with MALME-3M melanoma and with MCF7 breast was more than 10 µM in each case. For the same compound, the TGI in the assay with MDA-MB-435, in the assay on NCI-H226 lung, in the assay on NCI-H460 lung, with SW-620 colon, in the assay on T-47D breast and with UACC-62 melanoma was more than 10 µM throughout.

On to `NC1=CC(C(=O)c2ccncc2)c2nc3ccccc3nc21` (stereo not drawn), for which the TGI in the assay with A498 renal, in the assay with A549 NSCLC, in the assay on ACHN renal, in the assay with CCRF-CEM leukemia, in the assay with EKVX NSCLC and with HCC-2998 colon was more than 100 µM each time. The TGI in the assay with HOP-62 NSCLC, with HT29 colon, in the assay with IGROV1 ovarian, in the assay with M14 melanoma, in the assay on MALME-3M melanoma and in the assay on MCF7 breast was more than 100 µM in each case. Besides, the TGI in the assay on MDA-MB-435, in the assay with NCI-H226 lung, in the assay with NCI-H460 lung, in the assay on SW-620 colon, in the assay with T-47D breast and in the assay with UACC-62 melanoma was more than 100 µM throughout. The TGI in the assay on UO-31 renal was more than 100 µM.

Regarding `CC1=CC2(O)OC3(CC2=C(C)C)C(C)CCC13` (stereo not drawn), the TGI in the assay on A498 renal, with A549 NSCLC, in the assay with ACHN renal, in the assay with CCRF-CEM leukemia, in the assay on EKVX NSCLC and in the assay on HOP-62 NSCLC was more than 100 µM in each case. Also, the TGI in the assay with HT29 colon, with IGROV1 ovarian, with K-562 leukemia, in the assay with M14 melanoma, in the assay on MALME-3M melanoma and with MCF7 breast was more than 100 µM throughout. Also, the TGI in the assay on MDA-MB-435, in the assay with NCI-H226 lung, in the assay on SW-620 colon, in the assay with T-47D breast, in the assay on UACC-62 melanoma and with UO-31 renal was more than 100 µM throughout.

On to `NC(=O)C(=CN1C(=O)CC(=O)NC1=S)C(N)=O`, for which the TGI in the assay on A498 renal, with A549 NSCLC, in the assay with ACHN renal, with EKVX NSCLC, in the assay with HCC-2998 colon and in the assay on HOP-62 NSCLC was more than 100 µM throughout. Also, the TGI with HT29 colon, in the assay on IGROV1 ovarian, in the assay on M14 melanoma, with MCF7 breast, in the assay on MDA-MB-435 and with NCI-H226 lung was more than 100 µM throughout. The TGI in the assay with NCI-H460 lung, with SW-620 colon, in the assay with T-47D breast and with UO-31 renal was more than 100 µM each time.

Regarding `COc1cccc(-c2cccc(SC)n2)n1`, the TGI in the assay with A549 NSCLC was more than 100 µM; in the assay with ACHN renal, more than 100 µM; in the assay with CCRF-CEM leukemia, 41.5 µM; in the assay with EKVX NSCLC, 97.3 µM; in the assay with HCC-2998 colon, 75.5 µM; in the assay on HOP-62 NSCLC, more than 100 µM. Besides, the TGI in the assay with HT29 colon is 93.8 µM; in the assay on IGROV1 ovarian, more than 100 µM; in the assay with K-562 leukemia, more than 100 µM; with M14 melanoma, more than 100 µM; with MCF7 breast, more than 100 µM; in the assay on MDA-MB-435, 86.8 µM. For the same compound, the TGI with NCI-H226 lung was 31.6 µM; in the assay with NCI-H460 lung, more than 100 µM; in the assay on SW-620 colon it was more than 100 µM; with T-47D breast, 75.1 µM; in the assay on UACC-62 melanoma, more than 100 µM; in the assay on UO-31 renal, more than 100 µM.

Take `CCCCCC(=O)OCC(=O)[C@H]1[C@H](C)C[C@H]2[C@@H]3C[C@H](F)C4=C/C(=N/OC(=O)c5cccc6c(=O)c7ccccc7[nH]c56)C=C[C@]4(C)[C@H]3[C@@H](O)C[C@@]21C`: the TGI is more than 100 µM with A549 NSCLC; more than 100 µM with ACHN renal; more than 100 µM in the assay with CCRF-CEM leukemia; more than 100 µM in the assay with EKVX NSCLC; 82.4 µM in the assay on HCC-2998 colon; more than 100 µM with HOP-62 NSCLC. In addition, the TGI in the assay with HT29 colon was 57.8 µM; in the assay on IGROV1 ovarian, more than 100 µM; in the assay with K-562 leukemia it was more than 100 µM; with M14 melanoma, 77.9 µM; with MALME-3M melanoma, 33.2 µM; in the assay with MCF7 breast it was 54.9 µM. Moreover, the TGI in the assay with MDA-MB-435 is 55.3 µM; with NCI-H226 lung, more than 100 µM; in the assay on SW-620 colon it was more than 100 µM; in the assay on T-47D breast it was 62.1 µM; with UACC-62 melanoma, 32 µM; with UO-31 renal, 50 µM.
